For two compounds, IC50 results are on record in US20250049809A1, “INHIBITORS OF MUTANT IDH1 AND IDH2” (Board of Regents, The University of Texas System, priority 2023, published 2025).

What all share (assay type): biochemical
One assay addresses mIDH1R132H/S280F (Homo sapiens (Human), UniProt O75874, R132H/S280F). In words: mIDH1 R132H/S280F enzymatic activity assay (NADPH fluorescence). The settings on record: enzyme assay, 1 hour preincubation; read-out: IDH1R132H/S280F IC50. The procedure: The enzymatic activity of mIDH1R132H/S280F was assessed by measuring the fluorescence of the NADPH. The assay was performed in 384 well, white ProxiPlates (PerkinElmer, 6008280) in assay buffer containing 50 mM Hepes (Life Technologies, 15630080), 50 mM KCl (Teknova, P0327), 10 mM MgCl2 (Sigma-Aldrich, M1028), 1 mM DTT (Sigma-Aldrich, 43815), 0.02% BSA (Sigma-Aldrich, A3059) at pH 7.5. The final reaction volume was 10 μL. Stock solutions of the test compounds were prepared in 100% DMSO (Sigma, D2650) and serially diluted 1:3 using 100% DMSO. 50 nL of compound were then transferred to the assay plate using the Beckman Coulter ECHO 650 Acoustic Liquid Handler for a final DMSO concentration of 0.5%. 5 μL of a mIDH1R132H/S280F and NADPH (Santa Cruz, SC202725C) mixture were added to the assay plate for a final concentration of 2 nM and […], respectively. 5 μL of NADPH alone were added to negative control wells followed by a 1 hour preincubation at room temperature. 5 μL of alphaketoglutarate (Sigma-Aldrich, K1128) were added to the assay plate for a final concentration of 120 μM. Fluorescence of NADPH (excitation: 350 nm, emission 450 nm) was immediately measured kinetically for approximately 90 minutes using the BioTek Synergy Neo plate reader.

The next assay deals with mIDH1R132H (Homo sapiens (Human), UniProt O75874, R132H). The assay can be described thus: mIDH1 R132H enzymatic activity assay (NADPH fluorescence). The settings on record: enzyme assay; read-out: IDH1R132H IC50. The procedure:
The enzymatic activity of mIDH1R132H was assessed by measuring the fluorescence of the NADPH. The assay was performed in 384 well, white ProxiPlates (PerkinElmer, 6008280) in assay buffer containing 50 mM Hepes (Life Technologies, 15630080), 50 mM KCl (Teknova, P0327), 10 mM MgCl2 (Sigma-Aldrich, M1028), 1 mM DTT (Sigma-Aldrich, 43815), 0.02% BSA (Sigma-Aldrich, A3059) at pH 7.5. The final reaction volume was 10 μL. Stock solutions of the test compounds were prepared in 100% DMSO (Sigma, D2650) and serially diluted 1:3 using 100% DMSO. 50 nL of compound were then transferred to the assay plate using the Beckman Coulter ECHO 650 Acoustic Liquid Handler for a final DMSO concentration of 0.5%. […] a mIDH1R132H and NADPH (Santa Cruz, SC202725C) mixture were added to the assay plate for a final concentration of 10 nM and 20 μM, respectively. 5 μL of NADPH alone were added to negative control wells. 5 μL of alphaketoglutarate (Sigma-Aldrich, K1128) were added to the assay plate for a final concentration of 200 μM. Fluorescence of NADPH (excitation: 350 nm, emission 450 nm) was immediately measured kinetically for approximately 60 minutes using the BioTek Synergy Neo plate reader.

The target in a further assay is WT IDH1 (Homo sapiens (Human), UniProt O75874). The assay can be described thus: WT IDH1 enzymatic activity assay (NADPH fluorescence). The following applies: enzyme assay. The procedure:
(§1) The enzymatic activity of WT IDH1 was assessed by measuring the fluorescence of the NADPH generated in the enzymatic reaction. The assay was performed in 384 well, white ProxiPlates (PerkinElmer, 6008280) in assay buffer containing 50 mM Hepes (Life Technologies, 15630080), 50 mM KCl (Teknova, P0327), 10 mM MgCl2 (Sigma-Aldrich, M1028), 1 mM DTT (Sigma-Aldrich, 43815), 0.02% BSA (Sigma-Aldrich, A3059) at pH 7.5. The final reaction volume was 10 μL. Stock solutions of the test compounds were prepared in 100% DMSO (Sigma, D2650) and serially diluted 1:3 using 100% DMSO. 50 nL of compound were then transferred to the assay plate using the Beckman Coulter ECHO 650 Acoustic Liquid Handler for a final DMSO concentration of 0.5%. 5 μL of WT IDH1 were added to the assay plate for a final concentration of 0.5 nM. 5 μL of assay buffer alone were added to negative control wells. 5 μL of an isocitrate (Sigma-Aldrich, 58790) and NADP (Sigma-Aldrich, N5755) mixture were added to the assay plate for a final concentration of 5 μM and 15 μM, respectively. Fluorescence of NADPH (excitation: 350 nm, emission 450 nm) was immediately measured kinetically for approximately 15 minutes using the BioTek Synergy Neo plate reader.

A further assay deals with WT IDH2 (Homo sapiens (Human), UniProt P48735). In words: WT IDH2 enzymatic activity assay (NADPH fluorescence). The settings on record: enzyme assay. The protocol:
as §1, with “IDH2” for “IDH1”

Sequence of mIDH1R132H (O75874 whole entry R132H): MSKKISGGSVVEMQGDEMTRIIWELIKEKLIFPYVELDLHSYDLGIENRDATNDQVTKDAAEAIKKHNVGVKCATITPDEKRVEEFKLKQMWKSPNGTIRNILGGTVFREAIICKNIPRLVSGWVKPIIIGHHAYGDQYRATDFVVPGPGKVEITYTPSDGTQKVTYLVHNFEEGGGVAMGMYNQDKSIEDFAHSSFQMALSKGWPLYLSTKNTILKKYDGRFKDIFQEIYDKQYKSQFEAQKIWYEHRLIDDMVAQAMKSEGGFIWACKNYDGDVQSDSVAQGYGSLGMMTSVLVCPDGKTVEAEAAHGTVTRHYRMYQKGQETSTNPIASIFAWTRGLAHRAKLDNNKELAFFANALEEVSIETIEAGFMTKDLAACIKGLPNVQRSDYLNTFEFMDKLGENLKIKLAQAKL
Sequence of mIDH1R132H/S280F (O75874 whole entry R132H/S280F): as the sequence (O75874 whole entry R132H) above, with S280F counted along it
Sequence of WT IDH1 (O75874 whole entry): as the sequence (O75874 whole entry R132H) above, with H132R counted along it
Sequence of WT IDH2 (P48735 40-452): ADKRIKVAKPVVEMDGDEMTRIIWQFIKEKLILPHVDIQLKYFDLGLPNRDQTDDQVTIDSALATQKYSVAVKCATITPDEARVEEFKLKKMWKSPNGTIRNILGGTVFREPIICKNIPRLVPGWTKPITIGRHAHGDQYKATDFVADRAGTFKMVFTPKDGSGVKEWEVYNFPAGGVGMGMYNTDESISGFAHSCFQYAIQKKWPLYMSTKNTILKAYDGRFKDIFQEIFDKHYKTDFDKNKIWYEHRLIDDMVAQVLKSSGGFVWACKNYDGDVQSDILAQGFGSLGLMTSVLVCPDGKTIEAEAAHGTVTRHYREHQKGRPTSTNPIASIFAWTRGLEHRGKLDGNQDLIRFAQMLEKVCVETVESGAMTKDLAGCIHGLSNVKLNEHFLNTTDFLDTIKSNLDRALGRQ

Consider `C=CC(=O)N1CCN(C2CCCC/C=C/CN3C(=O)OCc4cnc(nc43)N[C@@H](C)c3ccc2cc3)CC1` (stereo partly drawn) [Example 3, (3S,E)-5-(4-acryloylpiperazin-1-yl)-3-methyl-1^1,1^4-dihydro-1^2H-2-aza-1(7,1)-pyrimido[4,5-d][1,3]oxazina-4(1,4)-benzenacyclododecaphan-10-en-1^2-one], for which the IC50 on mIDH1R132H/S280F turned out to be 260 nM; at mIDH1R132H, 3.3 nM; at WT IDH1, 3170 nM; on WT IDH2 it was 16200 nM.

For `C=CC(=O)N1CCN(C2CCCCCCCN3C(=O)OCc4cnc(nc43)N[C@@H](C)c3ccc2cc3)CC1` (stereo partly drawn) [Example 4, (3S)-5-(4-acryloylpiperazin-1-yl)-3-methyl-1^1,1^4-dihydro-1^2H-2-aza-1(7,1)-pyrimido[4,5-d][1,3]oxazina-4(1,4)-benzenacyclododecaphan-1^2-one], the IC50 was 295 nM on mIDH1R132H/S280F, 4 nM at mIDH1R132H, over 16700 nM on WT IDH1 and 41200 nM on WT IDH2.
